According to US9856480B2, “Dnazyme for silencing the expression of EGFR” (DCB-USA LLC, priority 2013, dated 2018):
Strand notation (5' to 3'): a small letter for the sugar, then the base; units joined by * are phosphorothioate-linked, units joined directly phosphodiester-linked; [ ] holds rarer units or linkages, { } end groups; capitals alone tell only the bases. d = 2'-deoxy (DNA)

Experiments:
[1] = system: cleaved PARP; assay: Immunoblotting against cleaved form of PARP; assay type: cell-based, human; conditions: H1975 and CL97 cells; 100 nM
Description: A549, CL1-5, H1975, or CL97 was seeded onto 6-well at 3×10^5 cells/well and cultured overnight. Then, cells were separately treated with 100 nM DzControl or DzT790M-1 with lipofectamine 2000 (Invitrogen). The transfected A549 and CL1-5 cells were serum-starved for 24 h and treated with 100 ng/ml of EGF at 37° C. for 15 min. 72 h after transfection, cell were collected for analysis. Cells were washed twice by ice-cold PBS and then total protein was extracted by RIPA buffer with protease inhibitor (Roche). 50 μg of total protein from the supernatants were boiled for 5 min at 95° C. The samples were resolved on 10% SDS-PAGE gel and transferred onto nitrocellulose membranes. EGFR expression and downstream signaling were detected by using primary antibodies specific to human pEGFR(Y1068) (Cell signaling), tEGFR (Santa Cruz), pSTAT3 (Y705) (Cell signaling), tSTAT3 (Cell signaling), pAKT (5473)(Cell signaling), tAKT (Santa Cruz), pERK (T202/Y204) (Cell signaling), tERK (Santa Cruz), and cleaved PARP (Cell signaling) at 1:1000 dilution and β-actin (Santa Cruz) at 1:10000 dilution, respectively. […]
EGFR and downstream signaling pathway regulates important cell functions including cell proliferation and survival. In order to examine functional effects of DzT790M-1 on cell survival, the number of cells was counted after DzControl or DzT790M-1 transfection respectively. […]

[2] = system: wild-type EGFR; assay: Western immunoblotting of EGFR expression and downstream signaling in wild-type EGFR cell lines; assay type: cell-based, human; conditions: A549 and CL1-5 cells, 100 nM
Description: A549, CL1-5, H1975, or CL97 was seeded onto 6-well at 3×10^5 cells/well and cultured overnight. Then, cells were separately treated with 100 nM DzControl or DzT790M-1 with lipofectamine 2000 (Invitrogen). The transfected A549 and CL1-5 cells were serum-starved for 24 h and treated with 100 ng/ml of EGF at 37° C. for 15 min. 72 h after transfection, cell were collected for analysis. Cells were washed twice by ice-cold PBS and then total protein was extracted by RIPA buffer with protease inhibitor (Roche). 50 μg of total protein from the supernatants were boiled for 5 min at 95° C. The samples were resolved on 10% SDS-PAGE gel and transferred onto nitrocellulose membranes. EGFR expression and downstream signaling were detected by using primary antibodies specific to human pEGFR(Y1068) (Cell signaling), tEGFR (Santa Cruz), pSTAT3 (Y705) (Cell signaling), tSTAT3 (Cell signaling), pAKT (5473)(Cell signaling), tAKT (Santa Cruz), pERK (T202/Y204) (Cell signaling), tERK (Santa Cruz), and cleaved PARP (Cell signaling) at 1:1000 dilution and β-actin (Santa Cruz) at 1:10000 dilution, respectively. Secondary antibodies against rabbit IgG or mouse IgG was used at 1:5000 dilution. Protein bands on membrane were visualized by exposure to the chemiluminescence substrate.
EGFR belongs to receptor tyrosine kinases. The binding of its extracellular ligands triggers receptor dimerization, tyrosine residues phosphorylation, and downstream signaling activation including signal transducer and activator of transcription 3 (STAT3), Akt, extracellular signal regulated kinases (ERK), and others. To examine the effects of DzT790M on protein expression level of EGFR and its downstream signaling, western immunoblotting was performed on DzT790M transfected cells. A549, CL1-5, H1975, or CL97 was seeded onto 6-well at 3×10^5 cells/well and cultured overnight. Then, cells were separately treated with 100 nM DzControl or DzT790M-1 with lipofectamine 2000 (Invitrogen). The transfected A549 and CL1-5 cells were serum-starved for 24 h and treated with 100 ng/ml of EGF at 37° C. for 15 min. 72 h after transfection, cell were collected for analysis. Cells were washed twice by ice-cold PBS and then total protein was extracted by RIPA buffer with protease inhibitor (Roche). […] Also, activation of downstream STAT3, AKT, and ERK signaling after EGF treatment were not inhibited by DzT790M-1 or DzT790M-2 transfection.
CL1-5 (EGFR wild-type) or H1975 (EGFR T790M) were seeded onto 6-well at 3×10^5 cells/well and cultured overnight. […] The transfected CL1-5 cells were serum-starved for 24 h and treated with 100 ng/ml of EGF at 37° C. for 15 min. 72 h after transfection, cells were collected for western blotting analysis following the above mentioned procedure. […]

DzT790M-1: 10-23 DNAzyme against EGFR T790M mRNA, arms 10/4, phosphorothioate ends: AGCTGCATGAGGCTAGCTACAACGAGAGC (DNA dA*dGdCdTdGdCdAdTdGdAdGdGdCdTdAdGdCdTdAdCdAdAdCdGdAdGdAdG*dC; further chemistry not fully specified)
level of cleaved PARP compared to DzControl treated group [1]: increased level | activation of downstream STAT3, AKT, and ERK signaling after EGF treatment ([2]; 100 ng/ml EGF 15 min): not inhibited | protein level of EGFR compared to DzControl group ([2]; 72 h after transfection): did not decreased
